We go through one molecule from ChEMBL document CHEMBL1136867, “2009 Edward E Smissman Award. Pharmaceutical "gold" from neurostabilizing agents: topiramate and successor molecules” (J Med Chem, 2009).

The target of this experiment is Carbonic anhydrase 2 (Homo sapiens, UniProt P00918). The experiment is described as follows: Inhibition of human carbonic anhydrase 2.

`NS(=O)(=O)NCc1csc2ccccc12`: the IC50 (in general, the point on the concentration scale where inhibition reaches its midpoint) is 110 µM.
